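At the GI50, growth is halved. TGI: concentration producing complete growth inhibition.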
What was measured:
Test in all cases: growth of human tumour cells (NCI), 384-well format
HCT-15 colon = test system: HCT-15 colon
CCRF-CEM leukemia = test system: CCRF-CEM leukemia
OVCAR-3 ovarian = test system: OVCAR-3 ovarian
NCI-H23 lung = test system: NCI-H23 lung
NCI-H226 lung = test system: NCI-H226 lung
M14 melanoma = test system: M14 melanoma
NCI-H322M lung = test system: NCI-H322M lung
NCI-H522 lung = test system: NCI-H522 lung
UACC-62 melanoma = test system: UACC-62 melanoma
A498 renal = test system: A498 renal
SK-OV-3 ovarian = test system: SK-OV-3 ovarian
LOX IMVI melanoma = test system: LOX IMVI melanoma
MCF7 breast = test system: MCF7 breast
U251 glioblastoma = test system: U251 glioblastoma
TK-10 renal = test system: TK-10 renal
HS 578T breast = test system: HS 578T breast
SK-MEL-5 melanoma = test system: SK-MEL-5 melanoma
HT29 colon = test system: HT29 colon
COLO 205 colon = test system: COLO 205 colon
UACC-257 melanoma = test system: UACC-257 melanoma
HCC-2998 colon = test system: HCC-2998 colon
SN12C renal = test system: SN12C renal
MALME-3M melanoma = test system: MALME-3M melanoma
HOP-62 NSCLC = test system: HOP-62 NSCLC
A549 NSCLC = test system: A549 NSCLC
CAKI-1 renal = test system: CAKI-1 renal
SNB-75 CNS = test system: SNB-75 CNS
HL-60(TB) leukemia = test system: HL-60(TB) leukemia
RXF 393 renal = test system: RXF 393 renal
SF-268 CNS = test system: SF-268 CNS
NCI-H460 NSCLC = test system: NCI-H460 NSCLC
RPMI-8226 leukemia = test system: RPMI-8226 leukemia
786-0 renal = test system: 786-0 renal
ACHN renal = test system: ACHN renal
DU-145 prostate = test system: DU-145 prostate
SF-539 CNS = test system: SF-539 CNS
SR leukemia = test system: SR leukemia
UO-31 renal = test system: UO-31 renal
SK-MEL-28 melanoma = test system: SK-MEL-28 melanoma
MDA-MB-468 breast = test system: MDA-MB-468 breast
EKVX NSCLC = test system: EKVX NSCLC
KM12 colon = test system: KM12 colon
MDA-MB-231 breast = test system: MDA-MB-231 breast
T-47D breast = test system: T-47D breast
MOLT-4 leukemia = test system: MOLT-4 leukemia
MDA-MB-435 melanoma = test system: MDA-MB-435 melanoma
OVCAR-4 ovarian = test system: OVCAR-4 ovarian
OVCAR-8 ovarian = test system: OVCAR-8 ovarian
SNB-19 CNS = test system: SNB-19 CNS
BT-549 breast = test system: BT-549 breast
SF-295 CNS = test system: SF-295 CNS
HOP-92 NSCLC = test system: HOP-92 NSCLC
SW-620 colon = test system: SW-620 colon
K-562 leukemia = test system: K-562 leukemia
NCI/ADR-RES ovarian = test system: NCI/ADR-RES ovarian
HCT-116 colon = test system: HCT-116 colon

Which results are given for `CCc1cc(C(N)=O)ccc1-n1nc(C(C)C)c2c(-n3cnc(-c4cnn(C)c4)c3)ccnc21`?
GI50 (HCT-15 colon): 534 nM; TGI (HCT-15 colon): > 100000 nM; GI50 (CCRF-CEM leukemia): 289 nM; TGI (CCRF-CEM leukemia): 1250 nM; GI50 (OVCAR-3 ovarian): 454 nM; TGI (OVCAR-3 ovarian): 2230 nM; GI50 (NCI-H23 lung): 301 nM; TGI (NCI-H23 lung): 873 nM; GI50 (NCI-H226 lung): 3040 nM; TGI (NCI-H226 lung): > 100000 nM; GI50 (M14 melanoma): 488 nM; TGI (M14 melanoma): 23000 nM; GI50 (NCI-H322M lung): 799 nM; TGI (NCI-H322M lung): > 100000 nM; GI50 (NCI-H522 lung): 210 nM; TGI (NCI-H522 lung): 458 nM; GI50 (UACC-62 melanoma): 702 nM; TGI (UACC-62 melanoma): 3240 nM; GI50 (A498 renal): 1110 nM; TGI (A498 renal): > 100000 nM; GI50 (SK-OV-3 ovarian): 738 nM; TGI (SK-OV-3 ovarian): > 100000 nM; GI50 (LOX IMVI melanoma): 382 nM; TGI (LOX IMVI melanoma): 1260 nM; GI50 (MCF7 breast): 305 nM; TGI (MCF7 breast): > 100000 nM; GI50 (U251 glioblastoma): 485 nM; TGI (U251 glioblastoma): 3080 nM; GI50 (TK-10 renal): 487 nM; TGI (TK-10 renal): > 100000 nM; GI50 (HS 578T breast): 418 nM; TGI (HS 578T breast): 2230 nM; GI50 (SK-MEL-5 melanoma): 532 nM; TGI (SK-MEL-5 melanoma): 39100 nM; GI50 (HT29 colon): 398 nM; TGI (HT29 colon): > 100000 nM; GI50 (COLO 205 colon): 392 nM; TGI (COLO 205 colon): > 100000 nM; GI50 (UACC-257 melanoma): 5930 nM; TGI (UACC-257 melanoma): > 100000 nM; GI50 (HCC-2998 colon): 406 nM; TGI (HCC-2998 colon): 1870 nM; GI50 (SN12C renal): 412 nM; TGI (SN12C renal): 2440 nM; GI50 (MALME-3M melanoma): 240 nM; TGI (MALME-3M melanoma): 502 nM; GI50 (HOP-62 NSCLC): 584 nM; TGI (HOP-62 NSCLC): > 100000 nM; GI50 (A549 NSCLC): 411 nM; TGI (A549 NSCLC): > 100000 nM; GI50 (CAKI-1 renal): 767 nM; TGI (CAKI-1 renal): > 100000 nM; GI50 (SNB-75 CNS): 402 nM; TGI (SNB-75 CNS): 2020 nM; GI50 (HL-60(TB) leukemia): 189 nM; TGI (HL-60(TB) leukemia): 405 nM; GI50 (RXF 393 renal): 236 nM; TGI (RXF 393 renal): 614 nM; GI50 (SF-268 CNS): 510 nM; TGI (SF-268 CNS): > 100000 nM; GI50 (NCI-H460 NSCLC): 285 nM; TGI (NCI-H460 NSCLC): 645 nM; GI50 (RPMI-8226 leukemia): 376 nM; TGI (RPMI-8226 leukemia): 1090 nM; GI50 ([…]-0 renal): 825 nM; TGI (786-0 renal): > 100000 nM; GI50 (ACHN renal): 902 nM; TGI (ACHN renal): > 100000 nM; GI50 (DU-145 prostate): 369 nM; TGI (DU-145 prostate): 5800 nM; GI50 (SF-539 CNS): 304 nM; TGI (SF-539 CNS): 768 nM; GI50 (SR leukemia): 169 nM; TGI (SR leukemia): 329 nM; GI50 (UO-31 renal): 1130 nM; TGI (UO-31 renal): > 100000 nM; GI50 (SK-MEL-28 melanoma): 387 nM; TGI (SK-MEL-28 melanoma): 20000 nM; GI50 (MDA-MB-468 breast): 276 nM; TGI (MDA-MB-468 breast): 595 nM; GI50 (EKVX NSCLC): 712 nM; TGI (EKVX NSCLC): > 100000 nM; GI50 (KM12 colon): 374 nM; TGI (KM12 colon): > 100000 nM; GI50 (MDA-MB-231 breast): 643 nM; TGI (MDA-MB-231 breast): 6070 nM; GI50 (T-47D breast): 1590 nM; TGI (T-47D breast): 10100 nM; GI50 (MOLT-4 leukemia): 182 nM; TGI (MOLT-4 leukemia): 349 nM; GI50 (MDA-MB-435 melanoma): 653 nM; TGI (MDA-MB-435 melanoma): > 100000 nM; GI50 (OVCAR-4 ovarian): 6010 nM; TGI (OVCAR-4 ovarian): > 100000 nM; GI50 (OVCAR-8 ovarian): 396 nM; TGI (OVCAR-8 ovarian): 1620 nM; GI50 (SNB-19 CNS): 778 nM; TGI (SNB-19 CNS): > 100000 nM; GI50 (BT-549 breast): 651 nM; TGI (BT-549 breast): 9960 nM; GI50 (SF-295 CNS): 426 nM; TGI (SF-295 CNS): 1660 nM; GI50 (HOP-92 NSCLC): 675 nM; TGI (HOP-92 NSCLC): 3060 nM; GI50 (SW-620 colon): 407 nM; TGI (SW-620 colon): 15500 nM; GI50 (K-562 leukemia): 326 nM; TGI (K-562 leukemia): 3660 nM; GI50 (NCI/ADR-RES ovarian): 16900 nM; TGI (NCI/ADR-RES ovarian): 75400 nM; GI50 (HCT-116 colon): 561 nM; TGI (HCT-116 colon): 82900 nM

Reference: PubChem BioAssay (NCI)
